Consider one compound from patent US11602540B2, “Method for stimulating blood flow in a penile region of a patient” (BMR MEDICAL LLC, priority 2016, dated 2023).

A short description of the assay: treatment of diffuse plaque by carbon dioxide injection into affected corpus tissues. Format: in vivo, patient. The conditions noted are these: injection directly into affected corpus tissues. From the text: In addition to the above treatment method embodiments, Applicants have discovered that injection(s) of carbon dioxide is/are also effective to treat a condition related to Peyronie's disease known as “diffuse plaque” comprising plaque that has not assimilated into any hardened singular construct within the penis, but remains in a “diffuse” state throughout. The preferred treatment method is injection(s) of carbon dioxide directly into the affected corpus tissues to treat the diffuse plaque. This form of carbon dioxide injection treatment may be continued until the diffuse plaque has been sufficiently mitigated or eliminated. Preferably, if more than one carbon dioxide injection is required, then the second injection location is optimally spaced away from the location of the first carbon dioxide injection. As above, the “dose” of each carbon dioxide injection(s) is considered to be “therapeutically effective” which is defined as described above in conjunction with “carboxy therapy”.
FIG. 10 illustrates one method 900 for treating diffuse plaque using the above-described method steps. Thus, the “diffuse plaque” condition is identified or diagnosed within at least one corpus cavernosa at 902. […] After the initial round of administration/injection(s) of carbon dioxide is complete, the results may be assessed to see if the plaque is mitigated at 908. […]

On to `O=C=O` [carbon dioxide], for which the “effectiveness in treating diffuse plaque” value is recorded as “effective”.
